From patent publication US9751854B2 (Millennium Pharmaceuticals, Inc., priority 2014, dated 2017) come the findings set out here.

Bounds are passed on as bounds.

Chain of human VPS34 (Q8NEB9 whole entry): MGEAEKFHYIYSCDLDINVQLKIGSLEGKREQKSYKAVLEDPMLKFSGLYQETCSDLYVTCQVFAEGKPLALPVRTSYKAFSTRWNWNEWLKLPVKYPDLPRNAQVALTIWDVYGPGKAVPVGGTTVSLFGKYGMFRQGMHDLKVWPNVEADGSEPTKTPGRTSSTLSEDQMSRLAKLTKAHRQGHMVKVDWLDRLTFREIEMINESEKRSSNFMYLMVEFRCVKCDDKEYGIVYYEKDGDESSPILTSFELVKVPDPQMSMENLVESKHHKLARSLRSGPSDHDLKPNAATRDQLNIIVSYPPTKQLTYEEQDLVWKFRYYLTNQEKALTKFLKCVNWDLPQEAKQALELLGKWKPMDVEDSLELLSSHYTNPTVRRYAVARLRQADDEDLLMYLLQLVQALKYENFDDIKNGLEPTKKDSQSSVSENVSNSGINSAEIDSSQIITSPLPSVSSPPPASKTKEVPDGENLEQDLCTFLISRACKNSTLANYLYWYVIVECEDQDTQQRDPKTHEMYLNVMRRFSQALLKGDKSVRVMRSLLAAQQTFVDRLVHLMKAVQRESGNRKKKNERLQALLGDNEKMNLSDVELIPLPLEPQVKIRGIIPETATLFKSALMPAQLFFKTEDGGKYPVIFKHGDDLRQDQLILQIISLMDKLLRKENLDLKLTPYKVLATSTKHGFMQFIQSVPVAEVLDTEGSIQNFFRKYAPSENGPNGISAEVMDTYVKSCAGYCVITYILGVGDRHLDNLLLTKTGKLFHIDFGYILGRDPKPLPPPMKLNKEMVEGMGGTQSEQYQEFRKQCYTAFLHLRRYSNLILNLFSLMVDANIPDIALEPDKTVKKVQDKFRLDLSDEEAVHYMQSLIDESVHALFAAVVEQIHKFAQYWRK

This test addresses human VPS34 (Homo sapiens (Human), UniProt Q8NEB9). The experiment in a line: Human VPS34 enzyme assay (Adapta TR-FRET ADP detection). Type of test: biochemical. To be noted: IC50 range class.
In the case of `CNS(=O)(=O)c1cc(-c2ccnc(NC(C)=O)c2)cnc1N` [Compound I-89, N-[6-amino-5-(methylsulfamoyl)-3,4′-bipyridin-2′-yl]acetamide], the 50% inhibitory concentration (IC50) was 10 to 50 nM. `CC(=O)Nc1cc(-c2cnc(C)c(N3CCN(C)S3(=O)=O)c2)ccn1` [Compound I-386, N-[6-methyl-5-(5-methyl-1,1-dioxido-1,2,5-thiadiazolidin-2-yl)-3,4′-bipyridin-2′-yl]acetamide] registered an IC50 of 10 to 50 nM.

As for `CC(=O)Nc1cc(-c2cnc(Cl)c(NS(=O)(=O)c3ccccc3)c2C)ccn1` [Compound I-312, N-{6-chloro-4-methyl-5-[(phenylsulfonyl)amino]-3,4′-bipyridin-2′-yl}acetamide], the concentration for half-maximal inhibition (IC50) lay within 10 to 50 nM.

In turn, `Cc1nccc(Nc2cc(-c3cnc(Cl)c(C(=O)N4CCC4)c3C)ccn2)n1` [Compound I-457, axetidin-1-yl{6-chloro-4-methyl-2′-[(2-methylpyrimidin-4-yl)amino]-3,4′-bipyridine-5-yl)methanone] had an IC50 of 10 to 50 nM.

Take `COC(=O)Nc1cc(-c2cncc(S(=O)(=O)N3CCOCC3)c2)ccn1` [Compound I-332, methyl [5-(morpholin-4-ylsulfonyl)-3,4′-bipyridin-2′-yl]carbamate]: the IC50 lay in the range of 10 to 50 nM. As for `CC(=O)Nc1cc(-c2cnc(N(C)C)c(S(=O)(=O)NC(C)(C)C)c2C)ccn1` [Compound I-487, N-[5-(tert-butylsulfamoyl)-6-(dimethylamino)-4-methyl-3,4′-bipyridin-2′-yl]acetamide], the figure is above 100 nM. `CC(=O)Nc1cc(-c2cnc3cc[nH]c3c2)ccn1` [Compound I-17, N-[4-(1H-pyrrolo[3,2-b]pyridin-6-yl)pyridin-2-yl]acetamide] gave an IC50 of 50 to 100 nM. In turn, `CCc1c(-c2ccnc(NC(C)=O)c2)cnc(Cl)c1NS(=O)(=O)c1ccc(F)cc1F` [Compound I-469, N-(6-chloro-5-{[(2,4-difluorophenyl)sulfonyl]amino}-4-ethyl-3,4′-bipyridin-2′-yl)acetamide] had a half-inhibitory concentration (IC50) of 10 to 50 nM. As for `Cc1nccc(Nc2cc(-c3cnc4c(c3)C(=O)NCC4)ccn2)n1` [Compound I-406, 3-[2-[(2-methylpyrimidin-4-yl)amino]-4-pyridyl]-7,8-dihydro-6H-1,6-naphthyridin-5-one], the IC50 was above 100 nM. As for `CC(=O)Nc1cc(-c2cncc(C(=O)C3CC3)c2)ccn1` [Compound I-8, N-[5-(cyclopropylcarbonyl)-3,4′-bipyridin-2′-yl]acetamide], the figure is above 100 nM; as for `COc1cccc(S(=O)(=O)Nc2cc(-c3ccnc(NC(C)=O)c3)cnc2C)c1` [Compound I-123, N-(5-{[(3-methoxyphenyl)sulfonyl]amino}-6-methyl-3,4′-bipyridin-2′-yl}acetamide], below 10 nM; as for `CC(=O)Nc1cc(-c2cnc(N)c(S(=O)(=O)N3CCCCC3)c2)ccn1` [Compound I-156, N-[6-amino-5-(piperidin-1-ylsulfonyl)-3,4′-bipyridin-2′-yl]acetamide], below 10 nM. As for `CC(=O)Nc1cc(-c2cnc(N)c(S(=O)(=O)Nc3cccnc3)c2)ccn1` [Compound I-204, N-[6-amino-5-(pyridin-3-ylsulfamoyl)-3,4′-bipyridin-2′-yl]acetamide], the IC50 is below 10 nM.

For `CC(=O)Nc1cc(-c2cncc(S(=O)(=O)N3CC(F)(F)C3)c2)ccn1` [Compound I-391, N-{5-[(3,3-difluoroazetidin-1-yl)sulfonyl]-3,4′-bipyridin-2′-yl}acetamide], the half-inhibitory concentration (IC50) was 10 to 50 nM. As for `CC(=O)Nc1cc(-c2cnc3ncn(CC4CC4)c3c2)ccn1` [Compound I-135, N-{4-[1-(cyclopropylmethyl)-1H-imidazo[4,5-b]pyridin-6-yl]pyridin-2-yl}acetamide], the figure is above 100 nM; as for `Cc1ncc(-c2ccnc(NC(=O)N3CCCC3)c2)cc1NS(=O)(=O)c1ccc(F)cc1F` [Compound I-313, N-(5-{[(2,4-difluorophenyl)sulfonyl]amino}-6-methyl-3,4′-bipyridin-2′-yl)pyrrolidine-1-carboxamide], 10 to 50 nM.
